Legend:
[1] = target: T1, rat CB2 (Rattus norvegicus, UniProt Q9QZN9); test: rat CB2 radioligand binding assay ([3H]CP-55,940 competition); set-up: expressed in transfected cells; host or cells: HEK293
T1 sequence (Q9QZN9 1-360): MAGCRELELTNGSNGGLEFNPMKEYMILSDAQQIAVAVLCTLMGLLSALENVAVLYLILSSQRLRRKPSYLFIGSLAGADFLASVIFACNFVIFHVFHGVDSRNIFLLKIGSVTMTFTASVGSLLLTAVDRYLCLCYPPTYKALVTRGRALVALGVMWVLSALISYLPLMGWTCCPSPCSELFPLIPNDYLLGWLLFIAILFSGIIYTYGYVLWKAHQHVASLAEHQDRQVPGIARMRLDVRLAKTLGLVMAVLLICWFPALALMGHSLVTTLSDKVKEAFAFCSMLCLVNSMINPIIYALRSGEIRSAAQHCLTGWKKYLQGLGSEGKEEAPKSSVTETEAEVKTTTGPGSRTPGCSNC

[2] = target: T2, human CB2 receptors (Homo sapiens, UniProt P34972); test: human CB2 radioligand binding assay ([3H]CP-55,940 competition)
T2 construct: expressed in transfected cells; host or cells: HEK293
T2 sequence (P34972 whole entry): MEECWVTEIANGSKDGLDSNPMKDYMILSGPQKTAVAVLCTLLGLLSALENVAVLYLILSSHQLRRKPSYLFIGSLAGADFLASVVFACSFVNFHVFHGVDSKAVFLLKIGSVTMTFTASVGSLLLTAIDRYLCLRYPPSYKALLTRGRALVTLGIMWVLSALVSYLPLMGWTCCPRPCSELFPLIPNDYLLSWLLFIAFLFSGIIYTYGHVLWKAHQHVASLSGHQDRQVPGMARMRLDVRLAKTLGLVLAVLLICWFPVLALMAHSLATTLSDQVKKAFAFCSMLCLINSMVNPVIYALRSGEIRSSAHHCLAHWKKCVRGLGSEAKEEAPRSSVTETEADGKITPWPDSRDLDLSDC

[3] = target: T1, rat CB2; test: rat CB2 cyclase functional assay (HitHunter cAMP, HEK cells); type: cell-based; set-up: expressed in transfected cells; host or cells: HEK; conditions: forskolin 18 μM

| Compound | Ki [1] [nM] | Ki [2] [nM] | EC50 [3] [nM] |
| --- | --- | --- | --- |
| COc1ccc(Cl)cc1C(=O)/N=c1\sn(C(C)(C)C)cc1C(O)C1CCC1 (stereo not drawn) [Example 34, N-[(5Z)-2-tert-butyl-4-[cyclobutyl(hydroxy)methyl]isothiazol-5(2H)-ylidene]-5-chloro-2-methoxybenzamide] | 1.2 | 3.6 | 0.4 |
| COc1ccc(Cl)cc1C(=O)/N=c1\sn(C(C)(C)C)cc1CCC1CCC1 [Example 36, N-[(5Z)-2-tert-butyl-4-(2-cyclobutylethyl)isothiazol-5(2H)-ylidene]-5-chloro-2-methoxybenzamide] | 0.16 | 1.3 | 0.91 |
| COc1ccc(Cl)cc1C(=O)/N=c1\sn(C(C)(C)C)cc1CC(C)C [Example 37, N-[(5Z)-2-tert-butyl-4-isobutylisothiazol-5(2H)-ylidene]-5-chloro-2-methoxybenzamide] | 5.8 | 31 | 1.3 |
| COc1ccc(Cl)cc1C(=O)/N=c1\sn(C(C)(C)C)cc1CC1CCC1 [Example 38, N-[(5Z)-2-tert-butyl-4-(cyclobutylmethyl)isothiazol-5(2H)-ylidene]-5-chloro-2-methoxybenzamide] | 0.61 | 2.5 | 1.7 |
| COc1ccc(Cl)cc1C(=O)/N=c1\sn(C(C)(C)C)cc1C1CCOCC1 [Example 39, N-[(5Z)-2-tert-butyl-4-tetrahydro-2H-pyran-4-ylisothiazol-5(2H)-ylidene]-5-chloro-2-methoxybenzamide] | 26 | 99 | 1.6 |
| CCCCc1cn(C(C)(C)C)s/c1=N\C(=O)c1cc(OC)ccc1OC [Example 41, N-[(5Z)-4-butyl-2-tert-butylisothiazol-5(2H)-ylidene]-2,5-dimethoxybenzamide] | 6.3 | 45 | 0.21 |
| CCCCc1cn(C(C)(C)C)s/c1=N\C(=O)c1cc(F)ccc1OC [Example 42, N-[(5Z)-4-butyl-2-tert-butylisothiazol-5(2H)-ylidene]-5-fluoro-2-methoxybenzamide] | 2.3 | 24 | 0.31 |
| CCCCc1cn(C(C)(C)C)s/c1=N\C(=O)c1cc(C)ccc1OC [Example 43, N-[(5Z)-4-butyl-2-tert-butylisothiazol-5(2H)-ylidene]-2-methoxy-5-methylbenzamide] | 2.6 | 18 | 0.23 |
| COc1ccc(Cl)cc1C(=O)/N=c1\sn(C(C)(C)C)cc1Cc1ccco1 [Example 50, N-[(5Z)-2-tert-butyl-4-(2-furylmethyl)isothiazol-5(2H)-ylidene]-5-chloro-2-methoxybenzamide] | 2.5 | 19 | 0.13 |
| COc1ccc(C#N)cc1C(=O)/N=c1\sn(C(C)(C)C)cc1Cc1ccco1 [Example 51, N-[(5Z)-2-tert-butyl-4-(2-furylmethyl)isothiazol-5(2H)-ylidene]-5-cyano-2-methoxybenzamide] | 8.1 | 140 | 0.3 |
| COc1ccc(Cl)cc1C(=O)/N=c1\sn(C(C)(C)C)cc1Cc1cscn1 [Example 52, N-[(5Z)-2-tert-butyl-4-(1,3-thiazol-4-ylmethyl)isothiazol-5(2H)-ylidene]-5-chloro-2-methoxybenzamide] | 4.8 | 43 | 0.15 |
| CCCCc1cn(C(C)(C)C)s/c1=N\C(=O)c1cc(C=O)ccc1OC [Example 56, N-[(5Z)-4-butyl-2-tert-butylisothiazol-5(2H)-ylidene]-5-formyl-2-methoxybenzamide] | 1.2 | 11 | 0.076 |
| CCCCc1cn(C(C)(C)C)s/c1=N\C(=O)c1cc(C=NO)ccc1OC [Example 59, N-[(5Z)-4-butyl-2-tert-butylisothiazol-5(2H)-ylidene]-5-[(hydroxyimino)methyl]-2-methoxybenzamide] | 3.3 | 54 | 0.12 |
| CCCCc1cn(C(C)(C)C)s/c1=N\C(=O)c1cc(C(C)=O)ccc1OC [Example 64, 5-acetyl-N-[(5Z)-4-butyl-2-tert-butylisothiazol-5(2H)-ylidene]-2-methoxybenzamide] | 0.63 | 14 | 0.05 |
| CCCCc1cn(C(C)(C)C)s/c1=N\C(=O)c1cc(C(F)F)ccc1OC [Example 65, N-[(5Z)-4-butyl-2-tert-butylisothiazol-5(2H)-ylidene]-5-(difluoromethyl)-2-methoxybenzamide] | 1.6 | 9.3 | 0.052 |
| COc1ccc(Cl)cc1C(=O)/N=c1\sn(C(C)(C)C)cc1CC1CCCO1 (stereo not drawn) [Example 67, N-[(5Z)-2-tert-butyl-4-(tetrahydrofuran-2-ylmethyl)isothiazol-5(2H)-ylidene]-5-chloro-2-methoxybenzamide] | 3 | 32 | 3.7 |
| CCCCc1cn(C(C)(C)C)s/c1=N\C(=O)c1cc(/C(C)=N\O)ccc1OC [Example 68, N-[(5Z)-4-butyl-2-tert-butylisothiazol-5(2H)-ylidene]-5-[(1Z)-N-hydroxyethanimidoy1]-2-methoxybenzamide] | 8.3 | 59 | 0.022 |
| CCCCc1cn(C(C)(C)C)s/c1=N\C(=O)c1cc(C(C)(F)F)ccc1OC [Example 69, N-[(5Z)-4-butyl-2-tert-butylisothiazol-5(2H)-ylidene]-5-(1,1-difluoroethyl)-2-methoxybenzamide] | 1.6 | 18 | 0.043 |
| COc1ccc(C(F)(F)F)cc1C(=O)/N=c1\sn(C(C)(C)C)cc1Cc1ccco1 [Example 71, N-[(5Z)-2-tert-butyl-4-(2-furylmethyl)isothiazol-5(2H)-ylidene]-2-methoxy-5-(trifluoromethyl)benzamide] | 1.9 | 28 | 0.36 |
| COc1ccc(Cl)cc1C(=O)/N=c1\sn(C(C)(C)C)cc1COC(C)C [Example 72, N-[(5Z)-2-tert-butyl-4-(isopropoxymethyl)isothiazol-5(2H)-ylidene]-5-chloro-2-methoxybenzamide] | 7.4 | 19 | 0.054 |
| CCCCc1cn(C(C)(C)C)s/c1=N\C(=O)c1cc(C(=O)OC)ccc1OC [Example 74, Methyl 3-({[(5Z)-4-butyl-2-tert-butylisothiazol-5(2H)-ylidene]amino}carbonyl)-4-methoxybenzoate] | 2.5 | 27 | 0.095 |
| COc1ccc(Cl)cc1C(=O)/N=c1\sn(C(C)(C)C)cc1CCCC(C)=O [Example 75, N-[(5Z)-2-tert-butyl-4-(4-oxopentyl)isothiazol-5(2H)-ylidene]-5-chloro-2-methoxybenzamide] | 4 | 31 | 0.29 |
| COc1ccc(C(F)(F)F)cc1C(=O)/N=c1\sn(C(C)(C)C)cc1CCCC(C)=O [Example 76, N-[(5Z)-2-tert-butyl-4-(4-oxopentyl)isothiazol-5(2H)-ylidene]-2-methoxy-5-(trifluoromethyl)benzamide] | 2.2 | 24 | 0.13 |
| COc1ccc(Cl)cc1C(=O)/N=c1\sn(C(C)(C)C)cc1CCCC(C)(C)O [Example 80, N-[(5Z)-2-tert-butyl-4-(4-hydroxy-4-methylpentyl)isothiazol-5(2H)-ylidene]-5-chloro-2-methoxybenzamide] | 8.5 | 74 | 0.046 |
| COc1ccc(C(F)(F)F)cc1C(=O)/N=c1\sn(C(C)(C)C)cc1CCCC(C)(C)O [Example 81, N-[(5Z)-2-tert-butyl-4-(4-hydroxy-4-methylpentyl)isothiazol-5(2H)-ylidene]-2-methoxy-5-(trifluoromethyl)benzamide] | 2.6 | 45 | 0.061 |
| COc1ccc(Cl)cc1C(=O)/N=c1\sn(C(C)(C)C)cc1CCCC(C)(C)F [Example 83, N-[(5Z)-2-tert-butyl-4-(4-fluoro-4-methylpentyl)isothiazol-5(2H)-ylidene]-5-chloro-2-methoxybenzamide] | 0.79 | 12 | 0.073 |
| COc1ccc(Cl)cc1C(=O)/N=c1\sn(C(C)(C)C)cc1CCC(C)=O [Example 84, N-[(5Z)-2-tert-butyl-4-(3-oxobutyl)isothiazol-5(2H)-ylidene]-5-chloro-2-methoxybenzamide] | 2.7 | 42 | 0.88 |
| COc1ccc(Cl)cc1C(=O)/N=c1\sn(C(C)(C)C)cc1COCC(F)(F)F [Example 85, N-[(5Z)-2-tert-butyl-4-[(2,2,2-trifluoroethoxy)methyl]isothiazol-5(2H)-ylidene]-5-chloro-2-methoxybenzamide] | 3.5 | 17 | 0.42 |
| COc1ccc(Cl)cc1C(=O)/N=c1\sn(C(C)(C)C)cc1CCCC(C)(F)F [Example 86, N-[(5Z)-2-tert-butyl-4-(4,4-difluoropentyl)isothiazol-5(2H)-ylidene]-5-chloro-2-methoxybenzamide] | 0.64 | 4.4 | 0.12 |
| COc1ccc(Cl)cc1C(=O)/N=c1\sn(C(C)(C)C)cc1CCC(C)(C)F [Example 87, N-[(5Z)-2-tert-butyl-4-(3-fluoro-3-methylbutyl)isothiazol-5(2H)-ylidene]-5-chloro-2-methoxybenzamide] | 0.74 | 12 | 0.15 |
